≈ marks a conversion by molar mass, not a printed value.
Tests used:
[1] = system: Enterococcus faecium; assay: Tested for in vitro antibacterial activity against Enterococcus faecium 02D31P2 vancomycin teicoplanin erythromycin resistance phenotype; assay type: functional
[2] = system: Staphylococcus aureus; assay: IC50 was determined for gyrase B of Staphylococcus aureus against novobiocin (0.5 mg/mL) as reference; IC50nov/IC50comp
[3] = system: Staphylococcus epidermidis; assay: Tested for in vitro antibacterial activity against Staphylococcus epidermidis 012GO42 oxacillin resistance phenotype; assay type: functional
[4] = system: Staphylococcus aureus; assay: Tested for in vitro antibacterial activity against Staphylococcus aureus 011 HT3 phenotype; assay type: functional
[5] = system: Staphylococcus aureus; assay: Tested for in vitro antibacterial activity against Staphylococcus aureus 011 GO64 ofloxacin oxacillin erythromycin resistance phenotype; assay type: functional
[6] = system: Streptococcus pyogenes; assay: Tested for in vitro antibacterial activity against Streptococcus pyogenes O2A1UC1 phenotype; assay type: functional
[7] = system: Staphylococcus aureus; assay: Tested for in vitro antibacterial activity against Staphylococcus aureus 011 HT1 novobiocin resistance phenotype; assay type: functional

Question: What does the source list for `C#CCONC(=O)O[C@H]1[C@@H](O)[C@H](Oc2ccc3c(=O)c(/C(C)=N/OC)c(O)oc3c2C)O[C@@](C)(C=C)[C@@H]1OC`?
Answer: MIC [1]: 1.2 µg/mL (≈ 2.2 µM); Ratio [2]: 2.6; MIC [3]: 0.15 µg/mL (≈ 0.274 µM); MIC [4]: < 0.04 µg/mL; MIC [5]: 0.3 µg/mL (≈ 0.549 µM); MIC [6]: 1.2 µg/mL (≈ 2.2 µM); MIC [7]: 2.5 µg/mL (≈ 4.57 µM)

Question: Which MIC [1] does the source give for `CO[C@@H]1[C@@H](OC(=O)c2ccc(C)[nH]2)[C@@H](O)[C@H](Oc2ccc3c(O)c(NC(=O)c4ccc(O)c(CC=C(C)C)c4)c(=O)oc3c2Cl)OC1(C)C` [CHLOROBIOCIN] here?
Answer: < 0.04 µg/mL

Question: What about the Ratio [2] of the same compound?
Answer: 1.7

Question: And the MIC [4]?
Answer: < 0.04 µg/mL

Question: And the MIC [6]?
Answer: < 0.04 µg/mL

Question: And the MIC [7]?
Answer: 0.6 µg/mL (≈ 0.861 µM)

Question: With `C#CCONC(=O)O[C@H]1[C@@H](O)[C@H](Oc2ccc3c(=O)c(/C(C)=N/OC)c(O)oc3c2C)O[C@@](C)(CC=C)[C@@H]1OC` as the compound, how does the MIC [1] read?
Answer: 0.6 µg/mL (≈ 1.07 µM)

Question: And the Ratio [2]?
Answer: 2.6

Question: What about the MIC [3] of the same compound?
Answer: < 0.04 µg/mL

Question: And the MIC [4]?
Answer: < 0.04 µg/mL

Question: What about the MIC [6] of the same compound?
Answer: 0.3 µg/mL (≈ 0.535 µM)

Question: And the MIC [7]?
Answer: 1.2 µg/mL (≈ 2.14 µM)

Question: Which results are given for `C#CCONC(=O)O[C@H]1[C@@H](O)[C@H](Oc2ccc3c(O)c(/C(C)=N/OC)c(=O)oc3c2C)OC(CC)(CC)[C@@H]1OC`?
Answer: MIC [1]: 0.6 µg/mL (≈ 1.07 µM); Ratio [2]: 4; MIC [3]: < 0.04 µg/mL; MIC [4]: < 0.04 µg/mL; MIC [5]: 0.08 µg/mL (≈ 0.142 µM); MIC [6]: 0.6 µg/mL (≈ 1.07 µM); MIC [7]: 2.5 µg/mL (≈ 4.44 µM)

Question: Which results are given for `C#CCONC(=O)O[C@H]1[C@@H](O)[C@H](Oc2ccc3c(O)c(/C(C)=N/OC)c(=O)oc3c2C)O[C@@H](CC)[C@@H]1OC`?
Answer: MIC [1]: 40 µg/mL (≈ 74.8 µM); Ratio [2]: 2.6; MIC [3]: 0.3 µg/mL (≈ 0.561 µM); MIC [4]: 0.3 µg/mL (≈ 0.561 µM); MIC [5]: 0.6 µg/mL (≈ 1.12 µM); MIC [6]: 2.5 µg/mL (≈ 4.68 µM); MIC [7]: 20 µg/mL (≈ 37.4 µM)
